Series [1] has as its system trachea. As to the kind of experiment: Tracheal expansion activity against acetyl choline (ACh) induced tracheal contraction. On the set-up: species or system Hartley guinea pig. The note with it: for IC50: Cavia porcellus, ACh 1×10^-6 M, read-out: 50% Contraction-inhibitive Concentration, ACh Contraction; for Ratio of Effectiveness, ACh Contraction: reverse ratio of 50% contraction-inhibitive concentration to that of theophylline.
Source text: (§6) Tracheal expansion activity against tracheal contraction induced by acetyl choline (ACh) and histamine (His)
(§7) A Hartley guinea pigs (male, weight: 400-500 g) was killed by bleeding and its trachea was immediately extracted. […] Static tensions was isometrically measured.

The test system of series [2] is trachea. As to the kind of experiment: Tracheal expansion activity against histamine (His) induced tracheal contraction. On the set-up: species or system Hartley guinea pig. The note with it: for IC50: Cavia porcellus, His 1×10^-6 M, read-out: 50% Contraction-inhibitive Concentration, His Contraction; for Ratio of Effectiveness, His Contraction: reverse ratio of 50% contraction-inhibitive concentration to that of theophylline.
Source text: as §6, §7

The test system of series [3] is coronary artery. As to the kind of experiment: Vasodilative activity, Magnus method, dog coronary artery contracted with PGF2 α. As to conditions: Canis lupus familiaris; PGF2 α 5×10^-6 M; read-out: 50% Contraction-inhibitive Concentrations, Coronary Artery, PGF2 α. The procedure:
(§1) A bastard, male, adult dog weighing about 8-10 kg was anesthetized with pentobarbital sodium (25 mg/kg, i.v.) and killed by bleeding. Its basilar and coronary arteries were immediately extracted. […] Static tensions of the ring were isometrically measured and recorded.
(§2) Test compounds were accumulatively given to specimens contracted with 1×10^-7 M (final concentration) U-46619 to the final concentration of 1×10^-7 to 1×10^-4 M to investigate their vasodilative activities.
(§3) The vasodilative activity and coronary blood flow increase activity were respectively measured according to the following Methods 1 and 2.
(§4) The same Magnus method was used as in Experimental Example 1, except that instead of 1×10^-7 M (final concentration) U-46619, 5×10^-6 M (final concentration), PGF2 α or 60 mM potassium chloride was used.

In series [4] the test system is basilar artery. As to the kind of experiment: Vasodilative activity, Magnus method, dog basilar artery contracted with potassium chloride. The note with it: Canis lupus familiaris; 60 mM potassium chloride; read-out: 50% Contraction-inhibitive Concentrations, Basilar Artery, KCl. The protocol: as §1, §2, §3, §4
The subject of series [5] is coronary blood flow. As to the kind of experiment: Coronary blood flow increase activity in anesthetized dog. It is filed as in vivo. The note with it: maximum flow relative to before administration.
Source text: as §3
The heart was exposed by an incision into pericardium through the left quartus costa rib. About 1 cm of a coronary vessel was peeled off from the surrounding tissues at about 1 cm from the left ramus circumplexus and a blood flow meter probe was installed for measuring the coronary blood flow. Left ventricle pressure, heart rate, right femoral artery pressure, and lower extremity blood flow rate were monitored. All test compounds were intravenously administered.
The maximum coronary blood flow rates achieved after the administration as a percentage of the blood flow before administration was taken as the coronary blood flow increase activity.

Series [6] relates to basilar artery. As to the kind of experiment: Vasodilative activity, Magnus method, dog basilar artery contracted with PGF2 α. The note with it: Canis lupus familiaris; PGF2 α 5×10^-6 M; read-out: 50% Contraction-inhibitive Concentrations, Basilar Artery, PGF2 α. The procedure: as §1, §2, §3, §4
Series [7] relates to coronary artery. As to the kind of experiment: Vasodilative activity, Magnus method, dog coronary artery contracted with potassium chloride. The note with it: Canis lupus familiaris; 60 mM potassium chloride; read-out: 50% Contraction-inhibitive Concentrations, Coronary Artery, KCl. The protocol:
as §1, §2, §3, §4

Series [8] in a line: Acute toxicity test, oral, mice. The note with it: mouse, in vivo, ICR male mice, 14 days observation. The procedure:
An acute toxicity test on compounds of the present invention was performed according to the following method.
ICR male mice were purchased at 4 weeks of age and fed for 10 days before testing. The test compound suspended in 1% methylcellullose solution was orally administered using a metallic gaster probe at a dose of 0.1 ml (as the test compound) per […] of body weight. The mice were fasted for 15 hours before the administration. Observation was made for 14 days after the administration, and the LD50 value was determined from the survival rate by the Richfield Wilcoxin method.

Series [9] relates to basilar artery. As to the kind of experiment: Vasodilative activity, Magnus method, dog basilar artery ring contracted with U-46619. The note with it: for IC50: Canis lupus familiaris, U-46619 1×10^-7 M, read-out: 50% Contraction-inhibitive Concentrations; for vasodilative activity, times stronger than trapidil: U-46619, relative to trapidil. The procedure:
(§5) Vasodilative activity of the compound of the present invention was measured by the Magnus method.
as §1, §2

Series [10] relates to coronary artery. As to the kind of experiment: Vasodilative activity, Magnus method, dog coronary artery ring contracted with U-46619. As to conditions: for IC50: Canis lupus familiaris, U-46619 1×10^-7 M, read-out: 50% Contraction-inhibitive Concentrations; for vasodilative activity, times stronger than trapidil: U-46619, relative to trapidil. The procedure:
as §5, §1, §2

Each structure is given as a SMILES string. A value given as a limit tells only on which side of the number the result lay.

This note sets out measurements from US4992442A, “Pyrrolo(3,2-e)pyrazolo(1,5-a)pyrimidine derivative and medicine comprising the same” (Pola Chemical Industries Inc., Japan, priority 1988, dated 1991).

A word on the LD50: it is the dose expected to kill half of the subjects tested.

In the case of `Cn1c(=O)c2[nH]cnc2n(C)c1=O` [Theophylline, reference compound], the IC50 is 5 µM in [1] and 6.3 µM in [2].

Consider `Cc1nc2c(C#N)cnn2c2c1CCN2CC(C)C` [Compound No. 4, 8-iso-butyl-3-cyano-6,7-dihydro-5-methyl-8H-pyrrolo [3,2-e]pyrazolo[1,5-a]pyrimidine], for which the IC50 was 25 µM in series [3], 43 µM in series [4], above 100 µM in series [6] and 100 µM in series [7]. Further, in [5], the “Rate of Coronary Blood Flow Increase, 50 μg/kg (iv)” value turned out to be 20.4 ± 6.3%. In addition, the “Rate of Coronary Blood Flow Increase, 100 μg/kg (iv)” value in series [5] is on record as 52.8 ± 21.1%. Moreover, in series [8], the LD50 at 336 h was at least 1000 mg/kg.

`Cc1nc2c(C#N)cnn2c2c1CCN2CC1CCCCC1` [Compound No. 9, 3-cyano-8-cyclohexylmethyl-6,7-dihydro-5-methyl-8H-pyrrolo[3,2-e]pyrazolo[1,5-a]pyrimidine]: the IC50 in [3] is above 100 µM; in [4], above 100 µM; in series [1], 0.79 µM; in series [6], above 100 µM; in [7] it was above 100 µM. In addition, the “Ratio of Effectiveness, ACh Contraction” value in series [1] is on record as 6.3. The LD50 at 336 h in [8] is at least 1000 mg/kg.

As for `CCCCCCN1CCc2c(C)nc3c(C#N)cnn3c21` [Compound No. 7, 3-cyano-6,7-dihydro-8-hexyl-5-methyl-8H-pyrrolo [3,2-e]pyrazolo[1,5-a]pyrimidine], the IC50 in [3] was above 100 µM; in [4] it was 85 µM; in series [1], 6.3 µM; in series [6], above 100 µM; in series [7], above 100 µM; in series [2], 13 µM. In series [1], the “Ratio of Effectiveness, ACh Contraction” value turned out to be 0.8. Besides, in series [2], the “Ratio of Effectiveness, His Contraction” value came out at 0.5. This molecule gave an LD50 at 336 h in series [8] of at least 1000 mg/kg.

For `Cc1nc2c(C#N)cnn2c2c1CCN2C(C)(C)C` [Compound No. 1, 8-tert-butyl-3-cyano-6,7-dihydro-5-methyl-8H-pyrrolo[3,2-e]pyrazolo[1,5-a]pyrimidine], the IC50 in series [3] was 1.3 µM; in [4], above 100 µM; in series [1] it was 0.2 µM; in [9] it was 2.7 µM; in series [6] it was 1.6 µM; in series [7], above 100 µM. The results for the IC50 in [10] and in series [2] were 1.6 µM and 1.3 µM, respectively. Moreover, the “Ratio of Effectiveness, ACh Contraction” value in series [1] is on record as 25.0. The “Rate of Coronary Blood Flow Increase, 50 μg/kg (iv)” value in series [5] came out at 51.9 ± 11.9%. For the same molecule, the “Rate of Coronary Blood Flow Increase, 100 μg/kg (iv)” value in series [5] amounted to 181.6 ± 27.8%. The “vasodilative activity, times stronger than trapidil” value (“vasodilative activity” for short) in series [9] is 37 times; in series [10] it was 39 times. Besides, the “Ratio of Effectiveness, His Contraction” value in series [2] was 4.9. In addition, the median lethal dose (LD50) at 336 h in series [8] is at least 2000 mg/kg.

Consider `CCCCCN1CCc2c(C)nc3c(C#N)cnn3c21` [Compound No. 6, 3-cyano-6,7-dihydro-5-methyl-8-pentyl-8H-pyrrolo [3,2-e]pyrazolo[1,5-a]pyrimidine], for which the IC50 in [3] is above 100 µM; in series [4] it was above 100 µM; in series [1], 3.2 µM; in [6], above 100 µM; in series [7], above 100 µM; in [2], 16 µM. Also, in series [1], the “Ratio of Effectiveness, ACh Contraction” value is 1.6. In series [5], the “Rate of Coronary Blood Flow Increase, 50 μg/kg (iv)” value worked out at 7.3 ± 3.1%. Also, the “Rate of Coronary Blood Flow Increase, 100 μg/kg (iv)” value in [5] was 15.4 ± 5.7%. Also, the “Ratio of Effectiveness, His Contraction” value in [2] is given as 0.4. The molecule also registered a median lethal dose (LD50) at 336 h in series [8] of at least 1000 mg/kg.

Regarding `Cc1nc2ccnn2c2c1CCN2C(C)(C)C` [Compound No. 11, 8-tert-butyl-6,7-dihydro-5-methyl-8H-pyrrolo[3,2-e]pyrazolo[1,5-a]pyrimidine], the IC50 in series [3] amounted to 3.2 µM; in [4] it was 10 µM; in series [6] it was 7.9 µM; in series [7] it was 16 µM; in [2] it was 6.3 µM. Also, the “Ratio of Effectiveness, His Contraction” value in [2] was 1.0. The 50% lethal dose (LD50) at 336 h in series [8] is at least 1000 mg/kg.

Regarding `Cc1nc2c(C#N)cnn2c2c1CCN2C1CCCC1` [Compound No. 8, 3-cyano-8-cyclopentyl-6,7-dihydro-5-methyl-8H-pyrrolo [3,2-e]pyrazolo[1,5-a]pyrimidine], the IC50 in [3] is 0.2 µM; in series [4], above 100 µM; in series [1] it was 0.13 µM; in [6], above 100 µM; in [7], above 100 µM; in series [2], 1 µM. Besides, the “Ratio of Effectiveness, ACh Contraction” value in [1] came out at 38.5. Further, the “Ratio of Effectiveness, His Contraction” value in series [2] is recorded as 6.3. The molecule also gave a 50% lethal dose (LD50) at 336 h in series [8] of at least 1000 mg/kg.

In the case of `CCCCN1CCc2c(C)nc3c(C#N)cnn3c21` [Compound No. 3, 8-butyl-3-cyano-6,7-dihydro-5-methyl-8H-pyrrolo [3,2-e]pyrazolo[1,5-a]pyrimidine], the IC50 in [3] was above 100 µM; in series [4], 34 µM; in series [6], above 100 µM; in series [7], above 100 µM; in series [2], 30 µM. In [5], the “Rate of Coronary Blood Flow Increase, 50 μg/kg (iv)” value stood at 11.5 ± 4.6%. In series [5], the “Rate of Coronary Blood Flow Increase, 100 μg/kg (iv)” value is recorded as 37.9 ± 16.3%. Further, in series [2], the “Ratio of Effectiveness, His Contraction” value was 2.1. Also, the 50% lethal dose (LD50) at 336 h in series [8] is at least 1000 mg/kg.

Turning to `Cc1nc2c(C#N)cnn2c2c1CCN2N1CCOCC1` [Compound No. 10, 3-cyano-6,7-dihydro-5-methyl-8-(4-morpholyl)-8H-pyrrolo[3,2-e]yrazolo[1,5-a]pyrimidine], the IC50 in series [3] was above 100 µM; in [4], above 100 µM; in series [1], 1.3 µM; in series [6], above 100 µM; in [7] it was above 100 µM; in series [2], 5 µM. In addition, the “Ratio of Effectiveness, ACh Contraction” value in series [1] amounted to 3.9. Further, the “Ratio of Effectiveness, His Contraction” value in series [2] stood at 1.3. In addition, the LD50 at 336 h in series [8] was at least 1000 mg/kg.

For the molecule `Cc1nc2c(C#N)c(C)nn2c2c1CCN2C(C)(C)C` [Compound No. 2, 8-tert-butyl-3-cyano-6,7-dihydro-2,5-dimethyl-8H-pyrrolo[3,2-e]pyrazolo[1,5-a]pyrimidine], in series [9], the IC50 came to 2.7 µM and the “vasodilative activity” value stood at 37 times. For the same molecule, in series [10], the IC50 amounted to 1.8 µM and the “vasodilative activity” value stood at 35 times. This molecule also returned a median lethal dose (LD50) at 336 h in series [8] of at least 2000 mg/kg.

As for `CCC(C)N1CCc2c(C)nc3c(C#N)cnn3c21` (centres unmarked) [Compound No. 5, 8-sec-butyl-3-cyano-6,7-dihydro-5-methyl-8H-pyrrolo [3,2-e]pyrazolo[1,5-a]pyrimidine], the IC50 is 3.2 µM in series [3]; above 100 µM in [4]; 0.5 µM in series [1]; 2.5 µM in series [6]; above 100 µM in series [7]; 0.4 µM in series [2]. Moreover, the “Ratio of Effectiveness, ACh Contraction” value in [1] is listed as 10.0. Also, the “Rate of Coronary Blood Flow Increase, 50 μg/kg (iv)” value in series [5] turned out to be 8.2 ± 3.7%. The “Rate of Coronary Blood Flow Increase, 100 μg/kg (iv)” value in series [5] is reported as 27.3 ± 5.2%. For the same molecule, in [2], the “Ratio of Effectiveness, His Contraction” value came to 15.8. In [8], this molecule had an LD50 at 336 h of at least 1000 mg/kg.
